Test results from patent US9642853B2, “Stable pharmaceutical composition containing folates” (APROFOL AG, priority 2013, dated 2017).

Legend:
[1] = refrigerator: 2 to 8° C.; cited from earlier work
Solubility in water = type: physicochemical

solubility in water (Solubility in water) | SMILES | true solubility of leucovorin (calculated as folinic acid) [1] [mg per ml]
– | Nc1nc2c(c(=O)[nH]1)N(C=O)C(CNc1ccc(C(=O)N[C@@H](CCC(=O)O)C(=O)O)cc1)CN2 (single isomer, unassigned) [leucovorin] | 3
almost insoluble in water | Nc1nc2c(c(=O)[nH]1)N(C=O)C(CNc1ccc(C(=O)NC(CCC(=O)[O-])C(=O)[O-])cc1)CN2.[Zn+2] (centres unmarked) [leucovorin zinc] | –
